Where two headings read alike, the source gives them in different places.
Columns and labels:
AGS cells [1] = experiment: Cell survival assay (antiproliferative IC50); format: cell-based, human; details: read-out: Antiproliferative IC50
Protocol: (§1) Human colon carcinoma COLO205 and HT-29 cell lines (American Type Culture Collection (ATTC), Manassas, Va.) and the leukemia cell line HL-60 were maintained at 37° C. in 5% CO2 air in RPMI 1640 medium supplemented with 10% heat-inactivated fetal bovine serum (Gibco BRL, Grand Island, N.Y.), 100 units/mL penicillin, 100 μg/mL streptomycin and 2 mM 1-glutamine. The human gastric carcinoma AGS cell line (CCRC 60102), obtained from the Food Industry Research and Development Institute (Hsinchu, Taiwan), was maintained as described above, except that DMEM/F 12 was used as the medium rather than the RPMI 1640 medium. The human breast carcinoma MCF-7 cell line MCF-7 (ATTC) was cultured in RPMI 1640 medium supplemented with 5% fetal calf serum at 37° C. in a humidified atmosphere of 5% CO2 in air. The mouse macrophage cell line RAW 264.7 was maintained in RPMI 1640 supplemented with 100 U/ml penicillin, 100 μg/ml streptomycin, and 10% heat-inactivated fetal calf serum.
(§2) Cancer cells (2×10^5) were plated in 12-well Petri dishes. The next day, the medium was changed and treated with different concentration of the test compounds or compositions for 24 h. Where individual compounds were to be tested, stock solutions of the compound was prepared to contain 200 μM of the individual hydroxylated or non-hydroxylated PMF in dimethylsulfoxide (DMSO). Control cells were treated with DMSO to a final concentration of 0.05% (v/v). Depending on the objective of the particular experiment, cells were treating with test compound or composition for 1, 3 or 6 days. At the end of incubation, cells were harvested for cell count using a hemocytometer and measuring the cellular total nucleic acid content with the CyQUANT Cell Proliferation Assay Kit (Molecular Probes).
(§3) 1 N PMF and 6 N PMF compositions containing hydroxylated PMFs, prepared as described in Section 8.3 above, 70% PMF OPE and 5,6,7,8,3′,4′-hexamethoxyflavone (nobiletin) were tested for antiproliferative activity and apoptosis-inducing activity in HL-60, AGS and COLO205 cells as described in Section 8.4 above. Antiproliferative and apoptosis-inducing activities were derived as IC50 values and AC50, values, respectively, where AC50 is the concentration required for 50% apoptosis.
(§4) The PMF compounds were assayed in vitro for cell growth inhibition and for their ability to induce apoptosis in various human cancer cells, including HL-60, AGS, COLO 205, and HT-29 cells, using methods described in Section 8.4 above. Antiproliferative (IC50) and apoptosis-inducing activity (AC50) of PMFs in the HL-60, AGS, COLO 205, and HT-29 cells are reported in Table 9, where *P<0.05, **P<0.01 and ***P<0.001 indicate statistically significant differences from the control group.

COLO205 cells [2] = experiment: Cell survival assay (antiproliferative IC50); format: cell-based, human
Protocol: as §1, §2, §3, §4

HL-60 cells [3] = experiment: Cell survival assay (antiproliferative IC50); format: cell-based, human
Protocol: as §1, §2, §3, §4

HT-29 cells = experiment: Cell survival assay (antiproliferative IC50); format: cell-based, human
Protocol: as §1, §2, §4

AGS cells [4] = experiment: Apoptotic ratio by propidium iodide flow cytometry (AC50); format: cell-based, human
Protocol: (§5) The human cancer cells (2×10^5) were cultured in 60-mm Petri dishes and incubated for 24 h. After treated with test compounds for 24 h, the cells were then harvested, washed with PBS resuspended in 200 μL of PBS, and fixed in 800 μL of iced 100% ethanol at −20° C. After being left to stand overnight, the cell pellets were collected by centrifugation, resuspended in 1 mL of hypotonic buffer (0.5% Triton X-100 in PBS and 0.5 μg/mL RNase) and incubated at 37° C. for 30 min. Next, 1 mL of propidium iodide solution (50 μg/mL) was added, and the mixture was allowed to stand on ice for 30 min. Fluorescence emitted from the propidium iodide-DNA complex was quantitated after excitation of the fluorescent dye by FACScan cytometry (Becton Dickinson, San Jose, Calif.).
as §3, §4

COLO205 cells [5] = experiment: as above; format: cell-based, human
Protocol: as §5, §3, §4

HL-60 cells [6] = experiment: as above; format: cell-based, human
Protocol: as §5, §3, §4

[7] = system: LPS-induced nitrite production in RAW 264.7 macrophages; experiment: Nitrite assay (Griess reaction); format: cell-based, mouse; details: 100 ng/ml LPS, PMF 30 μM, 24 h, FIG. 3
Protocol: Compounds or compositions were tested for anti-inflammatory effects by monitoring nitrite production in LPS-activated RAW264.7 cells. After treating the cells with LPS or LPS and test substance, supernatants were harvested and the amount of nitrite, an indicator of NO synthesis, was measured by use of the Griess reaction. Briefly, supernatants (100 μl) were mixed with the same volume of Griess reagent (1% sulphanilamide in 5% phosphoric acid and 0.1% naphthylethylenediamine dihydrochloride in water) in duplicate on 96-well plates. After incubation at room temperature for 10 min, absorbance at 570 nm was measured with a ELISA reader (Thermo Labsystems Multiskan Ascent, Finland).
The anti-inflammatory effects of compounds A-K were tested by measuring nitrite production in LPS-activated RAW 264.7 macrophages, as described in Section 8.4 above. Macrophages were treated with 100 ng/ml LPS alone or LPS and PMF (10 or 30 μM) for 24 h. At the end of incubation time, 100 μl of the culture medium was collected for the nitrite assay.

[8] = COLO205 cells, read-out: Antiproliferative IC50
[9] = HL-60 cells, read-out: Antiproliferative IC50
[10] = AGS cells, read-out: Apoptosis-inducing AC50
[11] = COLO205 cells, read-out: Apoptosis-inducing AC50
[12] = HL-60 cells, read-out: Apoptosis-inducing AC50
[13] = Homo sapiens, COLO 205, COLO205 cells, read-out: Antiproliferative IC50
[14] = Homo sapiens, HL-60 cells, read-out: Antiproliferative IC50
[15] = Homo sapiens, AGS cells, read-out: Apoptosis-inducing AC50
[16] = Homo sapiens, COLO 205, COLO205 cells, read-out: Apoptosis-inducing AC50
[17] = Homo sapiens, HL-60 cells, read-out: Apoptosis-inducing AC50
[18] = Homo sapiens, COLO 205, read-out: Antiproliferative IC50
[19] = Homo sapiens, HL-60, read-out: Antiproliferative IC50
[20] = Homo sapiens, AGS, read-out: Apoptosis-inducing AC50
[21] = Homo sapiens, COLO 205, read-out: Apoptosis-inducing AC50
[22] = Homo sapiens, HL-60, read-out: Apoptosis-inducing AC50

| Structure (SMILES) | Rank of inhibitory potency on LPS-induced nitrite production [7] | IC50 (AGS cells [1]; Homo sapiens, AGS cells) [µM] | IC50 (COLO205 cells [2]; [13]) [µM] | IC50 (HL-60 cells [3]; [14]) [µM] | IC50 (HT-29 cells; Homo sapiens) [µM] | AC50 (AGS cells [4]; [15]) [µM] | AC50 (COLO205 cells [5]; [16]) [µM] | AC50 (HL-60 cells [6]; [17]) [µM] | further results |
| --- | --- | --- | --- | --- | --- | --- | --- | --- | --- |
| COc1ccc(-c2oc3c(OC)c(OC)c(OC)c(OC)c3c(=O)c2O)cc1OC [B, 3-hydroxy-5,6,7,8,3′,4-hexamethoxyflavone] | H>G>K>C>I>B | – | – | – | – | – | – | – | IC50 (AGS cells [1]; AGS cells): 72.3 ± 7.91 µM; IC50 (COLO205 cells [2]; [8]): 23.3 ± 1.56 µM; IC50 (HL-60 cells [3]; [9]): > 100 µM; IC50 (HT-29 cells): 63.63 ± 0.49 µM; AC50 (AGS cells [4]; [10]): > 100 µM; AC50 (COLO205 cells [5]; [11]): > 100 µM; AC50 (HL-60 cells [6]; [12]): 56.5 ± 2.39 µM |
| COc1ccc(-c2cc(=O)c3c(OC)c(OC)c(OC)c(OC)c3o2)cc1OC [Compound A, 5,6,7,8,3′,4′-hexamethoxyflavone, reference compound] | – | > 100 | 38 ± 1.4 | > 100 | > 100 | > 100 | > 100 | > 100 | IC50 (AGS cells [1]; Homo sapiens, AGS cells, Table 4): > 100 µg/mL; IC50 (COLO205 cells [2]; Homo sapiens, COLO 205, COLO205 cells, Table 4, read-out: Antiproliferative IC50): 66.7 ± 0.73 µg/mL; IC50 (HL-60 cells [3]; Homo sapiens, HL-60 cells, Table 4, read-out: Antiproliferative IC50): > 100 µg/mL; AC50 (AGS cells [4]; Homo sapiens, AGS cells, Table 4, read-out: Apoptosis-inducing AC50 (concentration required for 50% apoptosis)): > 100 µg/mL; AC50 (COLO205 cells [5]; Homo sapiens, COLO 205, COLO205 cells, Table 4, read-out: Apoptosis-inducing AC50 (concentration required for 50% apoptosis)): > 100 µg/mL; AC50 (HL-60 cells [6]; Homo sapiens, HL-60 cells, Table 4, read-out: Apoptosis-inducing AC50 (concentration required for 50% apoptosis)): > 100 µg/mL |
| COc1ccc(-c2oc3c(OC)c(OC)c(OC)c(O)c3c(=O)c2OC)cc1OC [Compound C, 5-hydroxy-3,6,7,8,3′,4′-hexamethoxyflavone] | H>G>K>C>I>B | 17 ± 0.21 | 67 ± 1.4 | 8.45 ± 1.6 | 77.4 ± 1.82 | 18.9 ± 0.41 | > 100 | 63.65 ± 0.61 | – |
| COc1cc(-c2cc(=O)c3c(OC)c(OC)c(OC)c(OC)c3o2)ccc1O [Compound G, 4′-hydroxy-5,6,7,8,3′-pentamethoxyflavone] | H>G>K>C>I>B | 70.5 ± 9.97 | 83.7 ± 4.96 | 47.4 ± 3.64 | 45.8 | > 100 | > 100 | 87.1 ± 7.83 | – |
| COc1ccc(-c2cc(=O)c3c(O)c(OC)c(OC)c(OC)c3o2)cc1O [Compound K, 5,3′-dihydroxy-6,7,8,4′-tetramethoxyflavone] | H>G>K>C>I>B | 9.61 | 11.2 | 10 | 40 | 70 ± 1.4 | > 100 | > 100 | – |
| COc1ccc(-c2oc3c(OC)c(OC)c(OC)c(OC)c3c(=O)c2OC)cc1OC [D, 3,5,6,7,8,3,4-heptamethoxyflavone, reference compound] | – | – | – | – | – | – | – | – | IC50 (AGS cells [1]; AGS cells): > 100 µM; IC50 (COLO205 cells [2]; [8]): 62.5 ± 1.81 µM; IC50 (HL-60 cells [3]; [9]): 54.4 ± 0.9 µM; IC50 (HT-29 cells): > 100 µM; AC50 (AGS cells [4]; [10]): > 100 µM; AC50 (COLO205 cells [5]; [11]): > 100 µM; AC50 (HL-60 cells [6]; [12]): > 100 µM |
| COc1cc(-c2cc(=O)c3c(O)c(OC)c(OC)c(OC)c3o2)cc(OC)c1OC [E, 5-hydroxy-6,7,8,3′,4′,5′-hexamethoxyflavone] | – | > 100 | > 100 | > 100 | > 100 | > 100 | > 100 | > 100 | – |
| COc1cc(-c2cc(=O)c3c(OC)c(OC)c(OC)c(OC)c3o2)cc(OC)c1OC [F, 5,6,7,8,3′,4′,5′-heptamethoxyflavone, reference compound] | – | > 100 | 92.6 ± 15 | 47 ± 4 | 96.4 ± 8.66 | > 100 | > 100 | > 100 | – |
| COc1c(OC)c(OC)c2c(=O)cc(-c3ccc(O)c(O)c3)oc2c1OC [H, 3′,4′-dihydroxy-5,6,7,8-tetramethoxyflavone] | H>G>K>C>I>B | – | – | – | 74.72 ± 0.2 | – | – | – | IC50 (AGS cells [1]; Homo sapiens, AGS): 69.3 ± 4.23 µM; IC50 (COLO205 cells [2]; [18]): 90.1 ± 11.9 µM; IC50 (HL-60 cells [3]; [19]): 71.2 ± 1.93 µM; AC50 (AGS cells [4]; [20]): > 100 µM; AC50 (COLO205 cells [5]; [21]): > 100 µM; AC50 (HL-60 cells [6]; [22]): > 100 µM |
| COc1ccc(-c2cc(=O)c3c(OC)c(OC)c(OC)c(OC)c3o2)cc1O [I, 3′-hydroxy-5,6,7,8,4′-pentamethoxyflavone] | H>G>K>C>I>B | – | – | – | > 100 | – | – | – | IC50 (AGS cells [1]; Homo sapiens, AGS): 65.75 ± 0.41 µM; IC50 (COLO205 cells [2]; [18]): 76 ± 1.88 µM; IC50 (HL-60 cells [3]; [19]): 52.72 ± 0.22 µM; AC50 (AGS cells [4]; [20]): > 100 µM; AC50 (COLO205 cells [5]; [21]): > 100 µM; AC50 (HL-60 cells [6]; [22]): 94.6 ± 1.5 µM |
| COc1ccc(-c2cc(=O)c3c(O)c(OC)c(OC)c(OC)c3o2)cc1OC [J, 5-hydroxy-6,7,8,3′,4′-pentamethoxyflavone] | – | > 100 | > 100 | > 100 | > 100 | > 100 | > 100 | > 100 | – |

— US20140039044A1, “Hydroxylated Polymethoxyflavone Compositions” (WLLGEN, INC., priority 2006, published 2014)
